Reference: patent US7288510B2, “Nitrogen-containing ortho ester-based surfactant, its preparation and use” (priority 2001, dated 2007)
Marks after values point to notes of the source that are not given here.

Columns and labels:
[1] = literature value; cited from earlier work
[2] = dynamic contact angle of alkaline formulations; type: physicochemical; details: formulation diluted 1:10, on Parafilm PM-922
Description: In this example, the wetting properties of alkaline formulations of some of the surfactants earlier described are tested by dynamic contact angle measurements.
Formulations I-III above were diluted 1:10 before measurements. The dynamic contact angle was measured on a hydrophobic, polymeric material (Parafilm PM-922, American Can Company) using a First Ten Ångstroms FTÅ 200 instrument (Portsmouth, Va., USA) equipped with a video camera and an image analyzing unit.

[3] = surface tension at a concentration of 0.1%; type: physicochemical; details: pH 8 buffer solution, bubble pressure method
[4] = foaming behaviour (proposed ISO 4877 circulation method); type: physicochemical
Description: The surfactant is dissolved in distilled water and diluted to a defined concentration. 500 ml of this solution is transferred to a thermostatable glass cylinder, graduated to 1500 ml. The solution is then circulated through a stainless steel tube using a pump. The solution enters the tube in the bottom of the glass cylinder and is released ca. 14 cm above the 1500-ml mark on the cylinder. The pump speed is 200 liter/h.
The solution is circulated for 10 minutes (foam level recorded each minute), the pump is then stopped, and the foam level recorded for additional 5 minutes (proposed ISO-method ISO 4877).

[5] = hydrotrope test: clarity interval of cleaning formulation; type: physicochemical; details: for Active amount of hydrotrope added: amount needed until the formulation of Table 10 was clear; for Cloud point of formulation: formulation of Table 10 with the hydrotrope
Description: [table] Tetrapotassium pyrophoshate and sodium metasilicate pentahydrate were dissolved in tap water. The ethoxylated alcohol was added to this solution, which then turned cloudy. The hydrotrope was added until the solution was clear, and the required amount was recorded. Then the temperature was raised until the mixture went cloudy again.

For `CCCCCCCCCCCC[N+](C)(C)C.[Br-]` [Dodecyltrimethylammonium bromide, n-dodecyltrimethylammonium bromide], the “cmc at 21° C.” value [1] is given as 4.9^c g/l, the “Contact angle after 10 s” value [2] is given as 68.2 ° and the “Contact angle after 30 s” value [2] is given as 67.9 °. The “Contact angle after 1 min” value [2] was 67.4 °, the “γ at 0.10% and 21° C.” value [3] was 52.5 mN/m and the “foaming behaviour in words” value [4] was “not affected by the addition of acid”. For the same compound, the “Foam Volume” value ([4]; 0.01% in distilled water, 1 min, circulating) was 160 mL, the “Foam Volume” value ([4]; 0.01% in distilled water, 2 min, circulating) was 160 mL and the “Foam Volume” value ([4]; 0.01% in distilled water, 3 min, circulating) was 160 mL. For the same compound, the “Foam Volume” value ([4]; 0.01% in distilled water, 4 min, circulating) was 140 mL, the “Foam Volume” value ([4]; 0.01% in distilled water, 5 min, circulating) was 140 mL and the “Foam Volume” value ([4]; 0.01% in distilled water, 6 min, circulating) was 140 mL. For the same compound, the “Foam Volume” value ([4]; 0.01% in distilled water, 7 min, circulating) was 140 mL, the “Foam Volume” value ([4]; 0.01% in distilled water, 8 min, circulating) was 140 mL and the “Foam Volume” value ([4]; 0.01% in distilled water, 9 min, circulating) was 140 mL. The “Foam Volume” value ([4]; 0.01% in distilled water, 10 min, circulating) was 140 mL, the “Foam Volume” value ([4]; 0.01% in distilled water, 11 min, pump stopped at 10 min) was 0 mL and the “Foam Volume” value ([4]; 0.01% in distilled water, 12 min, pump stopped at 10 min) was 0 mL. For the same compound, the “Foam Volume” value ([4]; 0.01% in distilled water, 13 min, pump stopped at 10 min) was 0 mL, the “Foam Volume” value ([4]; 0.01% in distilled water, 14 min, pump stopped at 10 min) was 0 mL and the “Foam Volume” value ([4]; 0.01% in distilled water, 15 min, pump stopped at 10 min) was 0 mL. For the same compound, the “Foam Volume” value ([4]; 0.1% acid treated (pH 2.5, sulfuric acid, stirred 10 minutes), 1 min, circulating) was 820 mL, the “Foam Volume” value ([4]; 0.1% acid treated (pH 2.5, sulfuric acid, stirred 10 minutes), 2 min, circulating) was 1100 mL and the “Foam Volume” value ([4]; 0.1% acid treated (pH 2.5, sulfuric acid, stirred 10 minutes), 3 min, circulating) was 1280 mL. For the same compound, the “Foam Volume” value ([4]; 0.1% acid treated (pH 2.5, sulfuric acid, stirred 10 minutes), 4 min, circulating) was 1360 mL, the “Foam Volume” value ([4]; 0.1% acid treated (pH 2.5, sulfuric acid, stirred 10 minutes), 5 min, circulating) was 1380 mL and the “Foam Volume” value ([4]; 0.1% acid treated (pH 2.5, sulfuric acid, stirred 10 minutes), 6 min, circulating) was 1380 mL. For the same compound, the “Foam Volume” value ([4]; 0.1% acid treated (pH 2.5, sulfuric acid, stirred 10 minutes), 7 min, circulating) was 1360 mL, the “Foam Volume” value ([4]; 0.1% acid treated (pH 2.5, sulfuric acid, stirred 10 minutes), 8 min, circulating) was 1360 mL and the “Foam Volume” value ([4]; 0.1% acid treated (pH 2.5, sulfuric acid, stirred 10 minutes), 9 min, circulating) was 1350 mL. For the same compound, the “Foam Volume” value ([4]; 0.1% acid treated (pH 2.5, sulfuric acid, stirred 10 minutes), 10 min, circulating) was 1340 mL, the “Foam Volume” value ([4]; 0.1% acid treated (pH 2.5, sulfuric acid, stirred 10 minutes), 11 min, pump stopped at 10 min) was 800 mL and the “Foam Volume” value ([4]; 0.1% acid treated (pH 2.5, sulfuric acid, stirred 10 minutes), 12 min, pump stopped at 10 min) was 340 mL. The “Foam Volume” value ([4]; 0.1% acid treated (pH 2.5, sulfuric acid, stirred 10 minutes), 13 min, pump stopped at 10 min) was 280 mL, the “Foam Volume” value ([4]; 0.1% acid treated (pH 2.5, sulfuric acid, stirred 10 minutes), 14 min, pump stopped at 10 min) was 120 mL and the “Foam Volume” value ([4]; 0.1% acid treated (pH 2.5, sulfuric acid, stirred 10 minutes), 15 min, pump stopped at 10 min) was 60 mL. For the same compound, the “Foam Volume” value ([4]; 0.1% in distilled water, 1 min, circulating) was 780 mL, the “Foam Volume” value ([4]; 0.1% in distilled water, 2 min, circulating) was 1080 mL and the “Foam Volume” value ([4]; 0.1% in distilled water, 3 min, circulating) was 1260 mL. The “Foam Volume” value ([4]; 0.1% in distilled water, 4 min, circulating) was 1340 mL, the “Foam Volume” value ([4]; 0.1% in distilled water, 5 min, circulating) was 1370 mL and the “Foam Volume” value ([4]; 0.1% in distilled water, 6 min, circulating) was 1360 mL. For the same compound, the “Foam Volume” value ([4]; 0.1% in distilled water, 7 min, circulating) was 1360 mL, the “Foam Volume” value ([4]; 0.1% in distilled water, 8 min, circulating) was 1340 mL and the “Foam Volume” value ([4]; 0.1% in distilled water, 9 min, circulating) was 1320 mL. The “Foam Volume” value ([4]; 0.1% in distilled water, 10 min, circulating) was 1320 mL, the “Foam Volume” value ([4]; 0.1% in distilled water, 11 min, pump stopped at 10 min) was 1200 mL and the “Foam Volume” value ([4]; 0.1% in distilled water, 12 min, pump stopped at 10 min) was 800 mL. For the same compound, the “Foam Volume” value ([4]; 0.1% in distilled water, 13 min, pump stopped at 10 min) was 400 mL, the “Foam Volume” value ([4]; 0.1% in distilled water, 14 min, pump stopped at 10 min) was 260 mL and the “Foam Volume” value ([4]; 0.1% in distilled water, 15 min, pump stopped at 10 min) was 180 mL.

For `CC(C)c1ccc(S(=O)(=O)[O-])cc1.[Na+]` [Sodium cumene sulfonate], the “Active amount of hydrotrope added” value [5] was 9.0 % (w/w) and the “Cloud point of formulation” value [5] was 45-50 °C.

In the case of `CCCCCCCCCCCCCC[N+](C)(C)C.[Br-]` [Tetradecyltrimethylammonium bromide, n-tetradecyltrimethylammonium bromide], the “cmc at 21° C.” value [1] is given as 1.2^d g/l, the “Contact angle after 10 s” value [2] is given as 60.4 ° and the “Contact angle after 30 s” value [2] is given as 60.1 °. The “Contact angle after 1 min” value [2] was 59.1 ° and the “γ at 0.10% and 21° C.” value [3] was 41.5 mN/m.

With disodium octyliminodipropionate the “Active amount of hydrotrope added” value [5] was 6.0 % (w/w) and the “Cloud point of formulation” value [5] was 45-50 °C.
